The text below walks through data of patent publication US6774139B1, “Dual function microbicides” (Parker Hughes Institute, priority 2000, dated 2004).

Data set [1] relates to normal human vaginal epithelial cells. As to the kind of experiment: MTT cell viability assay, vaginal epithelial cells. The conditions noted are these: read-out: IC50[MTT] vaginal epithelial cells. The class given is cell-based. The procedure:
(§1) Briefly, exponential growing vaginal, ectocervical, and endocervical epithelial cells were seeded into 96-well plates at a density of 2×10^4 cells/well and incubated for 24 h at 37° C. prior to drug exposure. On the day of treatment, culture medium was aspirated from the wells and replaced with fresh medium containing serial two-fold drug concentrations ranging from 7.8 μM to 1000 μM. N-9 (IGEPAL CO-630; Rhone Poulenc, Cranbury, N.J.) was diluted in PBS. Triplicate wells were used for each treatment. Culture plates were then incubated for 3 hours before adding 10 μl of MTT solution (5 mg/ml in PBS) to each well. Wells containing only medium and MTT were used as control for each plate. The tetrazolium/formazan reaction was allowed to proceed for 4 hours at 37° C., and then 100 μl of the solubilization buffer (10% sodium dodecyl sulfate in 0.1% HCl) was added to all wells and mixed thoroughly to dissolve the dark blue formazan crystals. After an overnight incubation at 37° C., the OD at 540 nm were measured using a 96-well multiscanner autoreader with the solubilization buffer serving as blank. To translate the OD540 values into the number of live cells in each well, the OD540 values were compared to those of standard OD540-versus-cell number curves generated for each cell line. The percent survival was calculated using the formula: % survival=Live cell number [test]/Live cell number [control]×100. The results were expressed as mean IC50 values for three independent experiments. The IC50 [MTT] was defined as the concentration required for 50% reduction in cell survival.
(§2) Cell viability was measured by the MTT assay.

Data set [2] relates to normal human endocervical epithelial cells. As to the kind of experiment: MTT cell viability assay, endocervical epithelial cells. The class given is cell-based. To be noted: read-out: IC50[MTT] endocervical epithelial cells. How it is done:
as §1, §2

Another data set deals with human sperm. Description: sperm immobilizing activity (SIA) by CASA. The class given is cell-based. The conditions noted are these: for EC50: read-out: EC50 [SIA]; for effective 100% inhibitory concentration (EC100), sperm motility: FIG. 1, CASA. The procedure: To evaluate the effect of each of the 31 thiourea compounds on human sperm motility and kinematics, highly motile fractions of sperm were prepared from donor semen (n=8) by discontinuous (90-45%) gradient centrifugation using Enhance Plus medium (Conception Technologies, San Diego, Calif.) and the “swim-up” method. The swim-up method was used after density gradient centrifugation, washing, and resuspension of sperm in BWW-3% BSA. Pooled swim-up fraction was washed once prior to spermicidal assay.
All donor semen specimens were obtained after informed consent and in compliance with the guidelines of the Parker Hughes Institute Institutional Review Board. […] The stock solutions of thioureas were prepared in DMSO (100 mM) and diluted in assay medium to yield the desired concentrations (up to 1000 μM). Corresponding volume of DMSO (either 0.5% or 1%) was added to control tubes. After 3 hours of incubation at 37° C., the percentage of motile sperm was evaluated by CASA [53, 62-64]. The percent motilities were compared with sham-treated control suspensions of motile sperm.
For CASA, 5-μl of each sperm suspension was loaded into a 20-μm Microcell slide (Conception Technologies) in a counting chamber at 37° C. At least 5-8 fields per slide were scanned for analysis using a Hamilton Thome Integrated Visual Optical System (IVOS), version 10 instrument (Hamilton Thome Research Inc., Danvers, Mass.). Each field was recorded for 30 seconds. The computer calibrations were set at 30 frames at a frame rate of 30/second.
The sperm kinematics parameters that were determined included numbers of motile (MOT) and progressively (PRG) motile sperm; curvilinear velocity (VCL; a measure of the total distance traveled by a given sperm during the acquisition divided by the time elapsed); average path velocity (VAP; the spatially averaged path that eliminates the wobble of the sperm head), straight line velocity (VSL; the straight-line distance from beginning to end of track divided by time taken), beat cross frequency (BCF; frequency of sperm head crossing sperm average path), the amplitude of lateral head displacement (ALH; the mean width of sperm head oscillation), and the derivatives, straightness (STR=VSL/VAP×100) and linearity (LIN=VSL/VCL×100; departure of sperm track from a straight line). Data from each individual cell track were recorded and analyzed. At least 200 motile sperm were analyzed for each aliquot sampled.

For data set [3], the system named is normal human ectocervical epithelial cells. As to the kind of experiment: MTT cell viability assay, ectocervical epithelial cells. The class given is cell-based. To be noted: read-out: IC50[MTT] ectocervical epithelial cells. How it is done:
as §1, §2
A general note: Formazan colour is commonly taken as a measure of viable cells.

Data set [4] can be described thus: partition coefficient n-octanol/water (Pa). The class given is physicochemical. The conditions noted are these: UV absorption. The procedure: Partition of the test compounds between n-octanol and water as a measure of their lipophilicity was determined by taking the UV absorption of each compound in n-octanol, water-saturated n- octanol (1:1), and n-octanol-saturated water (1:1). The UV absorption maxima were determined by selecting a wavelength with the maximum absorption peak in the water-saturated octanol layer and the corresponding peak in the octanol-saturated water. Three absorption spectra were obtained for each compound. The partion coefficient (Pa) was calculated as the ratio of the compound concentration present in the lipid phase to the compound concentration present in the aqueous phase.

Data set [5] deals with T1, purified recombinant HIV-1 RT (Human immunodeficiency virus type 1 group M subtype B, UniProt P03366).
T1 construct: purified recombinant HIV-1 RT
Description: cell-free Quan-T-RT RT inhibition assay (scintillation proximity). The class given is biochemical. To be noted: IC50 [rRT], purified recombinant HIV-1 RT, cell-free. How it is done: Each of the thirty one thiourea compounds was tested for RT inhibitory activity against purified recombinant HIV-1 RT using the cell-free Quan-T-RT system (Amersham Corp., Arlington Heights, Ill.), which utilizes the scintillation proximity assay principle.
(In general: Scintillation proximity formats need no separation of bound from free tracer.)

Another data set deals with HIV-1 strain HTLVIIIB
Description: p24 antigen production in HIV-1 infected PBMCs. The class given is cell-based. The conditions noted are these: Human immunodeficiency virus 1, PBMC. How it is done: The HTLVIIIB strain of HIV-1 was propagated in CCRF-CEM cells and the virus stocks obtained from cell-free supernatants of infected cells were titered using MT-2 cells. Cell-free supernatants were harvested and frozen in 1 ml aliquots at −70° C.
Stock solutions (10 mM) of thiourea compounds were prepared in dimethylsulfoxide (DMSO). Cells were cultured for 7 days in 96-well microtiter plates (100 μl/well; 2×10^6 cells/ml, triplicate wells) in the presence and absence of various concentrations (0.001 μM to 100 μM) of the thioureas. Cells from non-infected controls were handled in the same way except the virus was omitted from the preparation. Aliquots of culture supernatants were removed from the wells on the 7th day after infection for p24 antigen as previously described. The p24 enzyme immunoassay was the unmodified kinetic assay available commercially (Coulter Corporation/Immunotech, Inc., Westbrook, Me.). The assay uses a murine monoclonal antibody (mAb) to the HIV core protein coated onto microwell strips to which the antigen present in the test culture supernatant sample binds. The plates were read on a ELISA reader (Molecular Devices, Sunnyvale, Calif.) at 650 nm and p24 levels, expressed as ng/ml, were calculated against known standards supplied by Coulter/Imrunotech, Inc. Percent viral inhibition was calculated by comparing the p24 values for the test substance-treated infected cells with the p24 values for untreated infected cells (i.e., virus controls). […]

The mark [6] stands for this setting: motile human sperm, 3 hours at 37° C., CASA.
[7] abbreviates: HIV-1 HTLVIIIB infected human PBMC, p24 antigen on 7th day, read-out: IC50 [p24].
Setting [8] is: HIV-1 HTLVIIIB infected human PBMC, values in nM, read-out: IC50[p24].

Where two headings read alike, the source gives them in different places.

In the case of `CCCCCCCCCc1ccc(OCCOCCOCCOCCOCCOCCOCCOCCOCCO)cc1` [Compound N-9, nonoxynol-9, reference compound], the IC50 in data set [1] (3 h) was 64 µM; in data set [2] (3 h), 32 µM; in data set [3] (3 h), 58 µM. The EC50 in the data set on human sperm (Homo sapiens, Sperm, 3 h) was found to be 81 µM.

Turning to `S=C(NCCc1ccccn1)Nc1ccccn1` [HI 207], the “Pa, Partition coefficient” value in data set [4] is on record as 2.32. The IC50 in data set [1] (3 h exposure, MTT) was greater than 1000 µM; in data set [5] it was 0.39 µM; in data set [2] (3 h exposure, MTT), greater than 1000 µM; in the data set with HIV-1 strain HTLVIIIB (setting [7]), 270 nM; in data set [3] (3 h exposure, MTT), greater than 1000 µM. In addition, in the data set with human sperm (setting [6]), the EC50 was 279 µM.

As for `Fc1ccccc1CCNC(=S)Nc1ccc(Br)cn1` [HI 240], the “Pa, Partition coefficient” value in data set [4] was determined as 1.20. The IC50 was greater than 1000 µM in data set [1] (3 h exposure, MTT); 0.6 µM in data set [5]; greater than 1000 µM in data set [2] (3 h exposure, MTT); less than 1 nM with HIV-1 strain HTLVIIIB (setting [7]); less than 1 nM in the data set on HIV-1 strain HTLVIIIB (setting [8]); greater than 1000 µM in data set [3] (3 h exposure, MTT). For the same compound, the EC50 in the data set on human sperm (setting [6]) was 147 µM.

On to `S=C(NCCc1ccccc1Cl)Nc1ccc(Br)cn1` [HI 253], for which the “Pa, Partition coefficient” value in data set [4] is reported as 1.04. In addition, the IC50 is greater than 1000 µM in data set [1] (3 h exposure, MTT); 0.7 µM in data set [5]; greater than 1000 µM in data set [2] (3 h exposure, MTT); less than 1 nM in the data set on HIV-1 strain HTLVIIIB (setting [7]); less than 1 nM in the data set with HIV-1 strain HTLVIIIB (setting [8]); greater than 1000 µM in data set [3] (3 h exposure, MTT). In addition, the EC50 in the data set on human sperm (setting [6]) was determined as 70 µM.

Consider `S=C(NCCC1=CCCCC1)Nc1ccc(Br)cn1` [HI 346], for which, in data set [4], the “Pa, Partition coefficient” value came to 8.6. The IC50 is greater than 1000 µM in data set [1] (3 h exposure, MTT); 0.6 µM in data set [5]; 580 ± 48 µM in data set [2] (3 h exposure, MTT); 3 nM in the data set with HIV-1 strain HTLVIIIB (read-out: IC50 [p24]); 3 nM in the data set on HIV-1 strain HTLVIIIB (read-out: IC50[p24]); 765 ± 400 µM in data set [3] (3 h exposure, MTT). Further, the “effective 100% inhibitory concentration (EC100), sperm motility” value in the data set on human sperm is listed as 0.25 mM. Moreover, the EC50 in the data set on human sperm (setting [6]) was 42 µM.

`S=C(NCCC1=CCCCC1)Nc1ccc(Cl)cn1` [HI 445]: in data set [4], the “Pa, Partition coefficient” value was found to be 6.3. Moreover, the IC50 stood at 578 ± 25 µM in data set [1] (3 h exposure, MTT); 185 ± 21 µM in data set [2] (3 h exposure, MTT); 3 nM with HIV-1 strain HTLVIIIB (read-out: IC50 [p24]); 3 nM in the data set with HIV-1 strain HTLVIIIB (read-out: IC50[p24]); 692 ± 139 µM in data set [3] (3 h exposure, MTT). Also, the “effective 100% inhibitory concentration (EC100), sperm motility” value in the data set with human sperm is 1 mM. The EC50 in the data set on human sperm (setting [6]) stood at 57 µM.

For orientation: IC50 means the concentration that gives 50% inhibition. The EC50 is the midpoint of the concentration-response curve.
